Square brackets hold non-standard residues; d marks the D form. Peptide text beside a SMILES is read from it. * marks the point of attachment. NHPhenethyl = c1ccc(CCN*)cc1; PhAc = O=C(Cc1ccccc1)*
Experiments:
[1] = molecular target: T1, human BRS-3 (subtype 3 of the human bombesin receptor) (Homo sapiens, UniProt P32247); experiment: FLIPR test: agonistic activity on BRS-3 (Ca2+ fluorescence, Fluo4) in transfected CHO cells; type: cell-based; details: for EC50: CHO-K1 cells co-expressing human BRS-3 and human Gα16, 50% activation relative to maximum response of nonapeptide [D-Phe6,β-Ala11,Phe13,Nle14]Bn(6-14) (=100%)
T1 construct: expressed in transfected cells; host or cells: CHO-K1 cells, stably transfected with RD-HGA16 (human Gα16) and pcDNA3.1(-)-BRS-3; single-cell clone selected
T1 sequence (P32247 1-399): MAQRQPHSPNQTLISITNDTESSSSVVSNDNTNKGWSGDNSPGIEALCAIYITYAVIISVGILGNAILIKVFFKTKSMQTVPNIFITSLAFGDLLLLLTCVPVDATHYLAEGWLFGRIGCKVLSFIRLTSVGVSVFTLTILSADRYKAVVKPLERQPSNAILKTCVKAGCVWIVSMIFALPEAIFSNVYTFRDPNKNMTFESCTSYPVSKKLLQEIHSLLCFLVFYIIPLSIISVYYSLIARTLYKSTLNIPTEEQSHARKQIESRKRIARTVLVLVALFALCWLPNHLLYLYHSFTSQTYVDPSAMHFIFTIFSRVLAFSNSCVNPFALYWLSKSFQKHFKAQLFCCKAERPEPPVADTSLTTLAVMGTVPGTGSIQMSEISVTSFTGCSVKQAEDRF
Text: For this, CHO cells (=“Chinese hamster ovary cells”) initially were transfected in known manner with an expression vector for the subtype 3 of the human bombesin receptor, i.e. BRS-3.
The cDNA of the human BRS-3 (nucleotide sequence under GenBank Accession No. L08893) was excised from the plasmid vector pGEM4 (from Promega, USA) using the restriction endonuclease EcoRI and was subcloned into the expression vector pcDNA3.1(−) (from Invitrogen, USA). CHO-K1 cells, which were already stably transfected with the expression vector RD-HGA16, which bears the cDNA sequence of the human Gα16 protein (nucleotide sequence under GenBank Accession No. M63904), were placed in sample plates with 24 sample wells (“24-well plate”) and incubated overnight under sterile conditions in an air-humidified incubator at 37° C. and 5% CO2 in F-12 medium plus Glutamax-I (from GibcoBRL, cat. No. 31765), to which 10%-strength foetal calf serum (inactivated at 56° C. for 1 h, from GibcoBRL), 25 μg/ml gentamicin (from GibcoBRL) and 0.2 mg/ml hygromycin B (from GibcoBRL) had been added. The next day, the cells were transfected with the BRS-3 expression vector by adding, using the “Effectene Transfection Reagent” (from Qiagen), 12 μl of a solution containing 0.3 μg/μl DNA of the expression vector per sample well. One day after transfection, the culture medium was replaced by selection medium. For this, the transfected cells, which each simultaneously express BRS-3 and the human Gα16 protein, were cultivated under sterile conditions at 37° C. and 5% CO2 in F-12 medium plus Glutamax-I (from GibcoBRL, cat. No. 31765), to which 10%-strength foetal calf serum (inactivated at 56° C. for 1 h, from GibcoBRL), 25 μg/ml gentamicin (from GibcoBRL), 0.2 mg/ml hygromycin B (from GibcoBRL) and 0.5 mg/ml geneticin (from GibcoBRL) had been added. To optimize the cell test, the cells with the highest receptor expression rate were selected. For this, the transfected cells were diluted 1:30,000 with the selection medium described above and were placed in sample plates with 96 sample wells (“96-well plate”). The cells were incubated overnight at 37° C. and 5% CO2, then those sample wells which contained only an individual cell were selected. These cells were first started in sample plates with 24 sample wells (“24-well plate”) and then cultivated in Costar plastic flasks (first 25 ml and then 225 ml). The BRS-3 receptor expression of the respective individual cell clone was estimated by determination of the EC50 value of the synthetic nonapeptide [D-Phe^6,β-Ala^11,Phe^13,Nle^14]Bn(6-14) as ligand (for performance of the test see below). The transfected cells were stored at −80° C. in aliquots of 1.8 ml medium each with 10% dimethyl sulfoxide (=DMSO) (cell concentration 1×10^6 cells/ml). For cultivation, a frozen aliquot was heated to 37° C., transferred into a Costar plastic flask (225 ml) and diluted with 50 ml of the selection medium described above. The medium was first changed once after 30 minutes' incubation. On each following first to third day, the medium was removed, the adherent cells (40-95% confluence) were washed with PBS Dulbecco's (from GibcoBRL) and detached from the bottom of the flask by a 2-minute treatment with trypsin-EDTA solution (from GibcoBRL) at 37° C. If the cells were to be cultivated further, they were transferred into a new plastic flask with fresh medium. If experiments were to be carried out with the cells, the cells were transferred into Costar sample plates with 96 sample wells, a clear baseplate and cover (“Costar 96-well assay plates”, from Coming), once the cell concentration had been set to 1.2×10^4 cells/ml.
BRS-3 is coupled via G-proteins to the Ca^2+-signal transduction path of the CHO cell. If an agonist binds to the receptor, the phospholipase C is activated via the G-protein, and then in turn catalyses the synthesis of water-soluble inositol phosphates. […]

Molecule	EC50 [1]	melting point	peptide concentration at which the maximum change in fluorescence had already been observed ([1]; reference dilution series on each plate, adopted as 100% value)
CC(NCCc1ccccc1)C(=O)NC(Cc1c[nH]c2ccccc12)C(=O)NCCc1ccccc1 (centres unmarked) [Example 26]	25 nM	–	–
O=C(CNCc1ccccc1)NC(Cc1c[nH]c2ccccc12)C(=O)NCCc1ccccc1 (centres unmarked) [Example 21]	21 nM	–	–
O=C(CNCCc1ccccc1)NC(Cc1c[nH]c2ccccc12)C(=O)NCCc1ccccc1 (centres unmarked) [Example 24]	17 nM	–	–
O=C(Cc1ccccc1)NNC(=O)NC(Cc1c[nH]c2ccccc12)C(=O)NCCc1ccccc1 (centres unmarked) [Example 27]	3.1 nM	–	–
O=C(CNCc1cccnc1)NC(Cc1c[nH]c2ccccc12)C(=O)NCCc1ccccc1 (centres unmarked) [Example 23]	21 nM	–	–
O=C(NNCc1ccc(Cl)cc1)N[C@H](Cc1c[nH]c2ccccc12)C(=O)NCCc1ccccc1 [Example 5, N1-phenethyl-(2R)-2-[N′-(4-chlorobenzyl)-hydrazino]-carboxamido-3-(1H-3-indolyl)-propanamide]	6 nM	75 to 80 °C	–
NC(=O)CCC(NC(=O)Cc1cc2ccccc2[nH]1)C(=O)NC(Cc1c[nH]c2ccccc12)C(=O)NCCc1ccccc1 (centres unmarked) [Example 15]	57 nM	–	–
O=C(CN1CCC(Cc2ccccc2)CC1)N[C@H](Cc1c[nH]c2ccccc12)C(=O)NCCc1ccccc1 [Example 7, N1-phenethyl-(2R)-2-[(4-benzylpiperidino)-methyl]-carboxamido-3-(1H-3-indolyl)-propanamide]	30 nM	73 to 75 °C	–
CC(NC(=O)Cc1cccnc1)C(=O)NC(Cc1c[nH]c2ccccc12)C(=O)NCCc1ccccc1 (centres unmarked) [Example 19]	32 nM	–	–
CC(NCc1ccc(Cl)cc1)C(=O)N[C@H](Cc1c[nH]c2ccccc12)C(=O)NCCc1ccccc1 (mixture of isomers) [Example 3, N1-phenethyl-(2R)-2-{1-[(4-chlorobenzyl)-amino]-ethylcarboxamido}-3-(1H-3-indolyl)-propanamide]	4 nM	107 to 110 °C	–
[D-Phe^6,β-Ala^11,Phe^13,Nle^14]Bn(6-14) [nonapeptide, reference compound]	–	–	~16 µM

More lines, now with the values ahead:

EC50 [1]	melting point	peptide concentration at which the maximum change in fluorescence had already been observed ([1]; reference dilution series on each plate, adopted as 100% value)	Molecule
1.4 nM	116 to 120 °C	–	O=C(Cc1cccnc1)NNC(=O)N[C@H](Cc1c[nH]c2ccccc12)C(=O)NCCc1ccccc1 [Example 4, N1-phenethyl-(2R)-2-{N′-[2-(3-pyridyl)-ethanoyl]-hydrazino}-carboxamido-3-(1H-3-indolyl)-propanamide]
2.2 nM	–	–	O=C(Cc1cc2ccccc2[nH]1)NNC(=O)NC(Cc1c[nH]c2ccccc12)C(=O)NCCc1ccccc1 (centres unmarked) [Example 30]
0.19 nM	–	–	O=C(Cc1ccc(Cl)cc1)NNC(=O)NC(Cc1c[nH]c2ccccc12)C(=O)NCCc1ccccc1 (centres unmarked) [Example 28]
1.5 nM	100 to 101 °C	–	O=C(N/N=C/c1ccco1)N[C@H](Cc1c[nH]c2ccccc12)C(=O)NCCc1ccccc1 [Example 6, N1-phenethyl-(2R)-2-[N′-(furan-2-ylmethylene)-hydrazino]-carboxamido-3-(1H-3-indolyl)-propanamide]
2.9 nM	–	–	O=C(CNCc1ccc(Cl)cc1)NC(Cc1c[nH]c2ccccc12)C(=O)NCCc1ccccc1 (centres unmarked) [Example 22]
2.1 nM	205 to 207 °C	–	C[C@H](NC(=O)Cc1ccccc1)C(=O)N[C@H](Cc1c[nH]c2ccccc12)C(=O)NCCc1ccccc1 [Example 2, N1-phenethyl-(2R)-2-[(1S)-1-(benzylcarboxamido)-ethyl]-carboxamido-3-(1H-3-indolyl)-propanamide] (PhAc-Ala-[dW]-NHPhenethyl)

From patent publication US7244743B2, “Non-peptidic BRS-3 agonists” (Solvay Pharmaceuticals GmbH, priority 2002, dated 2007)
